“And” between values parts separate entries of the source, which are not always exact repeats. Identical values can stand only once.
Columns and labels:
BMAL1 in HepG2 cells = experiment: expression of BMAL1 by qPCR; assay type: cell-based, human; design: key: Bmal1 expression normalized to Ppia; conditions: 5 μM, 24 h, single replicates (n = 4)
Text: We next determined whether STL1267 can regulate characterized REV-ERB modulated genes in cell lines expressing REV-ERB naturally. Five micromolar doses of both drugs were used in cell-based experiments from this point on. REV-ERB is an established component of the core molecular clock repressing the expression of core clock gene Bmal1[6],[27] as well as others[28],[29]. […] In skeletal muscle, REV-ERB agonism increases the expression of a wide variety of genes important in mitochondrial function.
The human hepatocellular carcinoma cell line, HepG2 cells (ATCC HB-8065), were cultured in 10% FBS 1% L-Glu MEM at 37 °C in a humidified atmosphere of 5% CO2. Prior to RNA extraction cells were treated with either DMSO or REV-ERB agonist for 24 h. The C2C12 proliferating mouse myoblast cells (ATCC, CRL-1772) were cultured in 10% FBS DMEM at 37 °C in a humidified atmosphere of 5% CO2. Prior to RNA extraction cells were treated with either DMSO or REV-ERB agonist for 24 h. Prior to crystal violet cytotoxicity assay, cells were treated with either DMSO or REV-ERB agonist for 48 h.
Mouse tissue was homogenized using a bullet blender. DNA/protein was removed by phase separation using BCP/chloroform. The supernatant (RNA containing fraction) was collected, and RNA was precipitated using isopropanol. The RNA pellets were washed with 75% ethanol and resolubilized in RNAse free water. […]

[1] = tissue exposure following i.p. administration; assay type: in vivo, C57Bl/6 J mice; conditions: mice
Protocol: To test the efficacy of STL1267 in vivo, we began by assessing tissue exposure following i.p. administration. We administered vehicle or 50 mg/kg of STL1267 via intraperitoneal injection to C57Bl/6 J mice. The mice were sacrificed at four subsequent time points over the next 12 h.
All in vivo studies were performed using the ARRIVE guidelines and approved by the Washington University IACUC. C57Bl/6J mice (male; 6–8 weeks of age) maintained at 12:12 h light;dark, 22 °C, 40–60% humidity. Mice were injected IP with 50 mg/kg STL1267 (n = 3–4 per group) or vehicle (10% DMSO, 12% TWEEN80, PBS) (n = 3–4 per group). Mice were weighed immediately following the injection and were weighed again immediately after sacrifice. Mice were fasted started at the time of injection. For tissue collection, three STL1267-injected mice were sacrificed at 1 h post-injection, and three more were sacrificed at 3 h post-injection. At 8 h and 12 h post-injection, six mice from each treatment group were taken down and tissue was collected. The tissues collected at all four time points include plasma, white adipose tissue, brain, liver, and skeletal muscle (quadriceps). […] Analytes were extracted using protein precipitation techniques with acetonitrile and samples were then analyzed using a SCIEX Triple Quad 5500+ system – QTRAP ready linked to an ExionLC AD-HPLC system. […]

FXR = FXR (Homo sapiens, UniProt Q96RI1); experiment: Gal4-UAS reporter assay for nuclear receptor specificity; assay type: cell-based; conditions: Gal4 DBD-NR, HEK293 cells, 10 µM
Text: (§1) We assessed the specificity of STL1267 using both in house nuclear receptor Gal4-NR reporter assays and the NIMH Psychoactive Drug Screening Program (PDSP) assays. We assessed the specificity of STL1267 in the PDSP’s radioligand displacement assays, screening for binding to off-target GPCRs, ion channels, transporters, and other drug targets (Table S1). Of the 43 targets assessed in this panel, we observed no detectable binding in 41 of them. […] Additional assessment in serotonin transporter and kappa opioid receptor activity in a functional assay may be warranted to determine absolute specificity.
(§2) Receptor RLBA Ki Receptor activity […]
(§3) HEK293 cells transfected with Gal4-UAS l uc i f eras e and […]

GR = GR (Homo sapiens, UniProt P04150); experiment: as above; assay type: cell-based; conditions: Gal4 DBD-NR, HEK293 cells, 10 µM
Text: as §1, §2, §3

RXRα = RXRα (Homo sapiens, UniProt P19793); experiment: as above; assay type: cell-based; conditions: Gal4 DBD-NR, HEK293 cells, 10 µM; RXRa
Text: as §1, §2, §3

Chain of RXRα (P19793 227-462 limits assumed): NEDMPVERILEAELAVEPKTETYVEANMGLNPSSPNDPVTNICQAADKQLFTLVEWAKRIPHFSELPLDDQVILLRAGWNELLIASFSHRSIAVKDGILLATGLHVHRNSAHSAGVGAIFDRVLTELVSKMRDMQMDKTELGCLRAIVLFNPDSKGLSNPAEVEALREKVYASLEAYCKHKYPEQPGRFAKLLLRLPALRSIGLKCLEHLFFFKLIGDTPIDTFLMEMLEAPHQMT
Chain of GR (P04150 524-777 limits assumed): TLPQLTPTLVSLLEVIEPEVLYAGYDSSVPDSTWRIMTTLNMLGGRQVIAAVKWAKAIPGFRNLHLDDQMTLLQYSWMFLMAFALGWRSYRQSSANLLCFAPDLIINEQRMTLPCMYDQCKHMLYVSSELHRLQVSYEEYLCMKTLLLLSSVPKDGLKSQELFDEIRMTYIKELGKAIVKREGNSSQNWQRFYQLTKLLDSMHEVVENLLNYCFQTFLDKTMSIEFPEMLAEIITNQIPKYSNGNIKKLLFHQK
Chain of FXR (Q96RI1 262-486 limits assumed): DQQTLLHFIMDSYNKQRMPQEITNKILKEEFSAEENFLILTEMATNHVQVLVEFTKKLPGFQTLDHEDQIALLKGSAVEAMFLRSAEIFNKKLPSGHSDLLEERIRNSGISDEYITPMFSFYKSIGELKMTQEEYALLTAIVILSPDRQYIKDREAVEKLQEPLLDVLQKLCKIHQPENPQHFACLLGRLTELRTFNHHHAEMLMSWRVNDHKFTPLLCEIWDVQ

Clc1nnc2ccc(Oc3ccccc3-c3ccccc3)nn12 [STL1267]
Bmal1 (Fig. 2c) expression (BMAL1 in HepG2 cells): attenuated the expression and 0.5800 and 0.6760 and 0.6148 and 0.7607
half-life ([1]; male, C57Bl/6J, mouse, plasma, ip, 50 mg/kg intraperitoneal injection): ~1.6 h
tissue distribution (brain, plasma, liver, skeletal muscle, white adipose tissue) ([1]; 50 mg/kg i.p.): localized in all the tissues collected
activity (FXR): did not detect activity
activity (GR): did not detect activity
activity (RXRα): did not detect activity

— PMC9681850, “Structural basis of synthetic agonist activation of the nuclear receptor REV-ERB” (Nature Communications, 2022)
